Source: the NIST ThermoML archive (doi:10.1016/j.jct.2019.04.018)
Numbers after ± are expanded uncertainties.

Experiments:
[1] = 100 kPa, Liquid; for viscosity: Capillary tube (Ostwald / Ubbelohde) method; for speed of sound: Frequency=2 MHz, Single path-length method; for mass density: Vibrating tube method
[2] = xn = mol fraction of the nth substance listed; conditions: 100 kPa, Liquid; for viscosity: Capillary tube (Ostwald / Ubbelohde) method; for speed of sound: Frequency=2 MHz, Single path-length method; for mass density: Vibrating tube method

C=COCCCC [1-(ethenyloxy)butane]
[1]
Conditions	mass density [kg/m3]	speed of sound [m/s]	viscosity [mPa·s]
303.15 K	769 ± 1.2	1086 ± 6	0.386 ± 0.015
308.15 K	763.9 ± 1.2	1076 ± 6	0.373 ± 0.015
313.15 K	758.8 ± 1.2	1066 ± 6	0.352 ± 0.015

COc1ccccc1 [anisole]
[1]
Conditions	mass density [kg/m3]	speed of sound [m/s]	viscosity [mPa·s]
303.15 K	984.4 ± 1.1	1386 ± 5	0.929 ± 0.015
308.15 K	979.8 ± 1.1	1366 ± 5	0.849 ± 0.015
313.15 K	975 ± 1.1	1348 ± 5	0.788 ± 0.015

COc1ccccc1 [anisole] + C=COC(C)=O
[2], x2 = 0
Conditions	mass density [kg/m3]	speed of sound [m/s]	viscosity [mPa·s]
303.15 K	984.4 ± 1.1	1386 ± 5	0.929 ± 0.015
308.15 K	979.8 ± 1.1	1366 ± 5	0.849 ± 0.015
313.15 K	975 ± 1.1	1348 ± 5	0.788 ± 0.015

CC(C)OC(C)C [diisopropyl ether]
[1]
Conditions	mass density [kg/m3]	speed of sound [m/s]	viscosity [mPa·s]
303.15 K	713.1 ± 1.2	982 ± 6	0.301 ± 0.014
308.15 K	707.9 ± 1.2	962 ± 6	0.287 ± 0.014
313.15 K	702.5 ± 1.2	942 ± 6	0.276 ± 0.014

CC(C)OC(C)C [diisopropyl ether] + C=COC(C)=O
[2], x2 = 0
Conditions	mass density [kg/m3]	speed of sound [m/s]	viscosity [mPa·s]
303.15 K	713.1 ± 1.2	982 ± 6	0.301 ± 0.014
308.15 K	707.9 ± 1.2	962 ± 6	0.287 ± 0.014
313.15 K	702.5 ± 1.2	942 ± 6	0.276 ± 0.014

C=COC(C)=O [vinyl acetate]
[1]
Conditions	mass density [kg/m3]	speed of sound [m/s]	viscosity [mPa·s]
303.15 K	919.4 ± 1.1	1092 ± 5	0.388 ± 0.014
308.15 K	913.5 ± 1.1	1074 ± 5	0.37 ± 0.014
313.15 K	907.3 ± 1.1	1054 ± 5	0.352 ± 0.014

C=COC(C)=O [vinyl acetate] + C=COCCCC
[2], x1 = 1
Conditions	mass density [kg/m3]	speed of sound [m/s]	viscosity [mPa·s]
303.15 K	919.4 ± 1.1	1092 ± 5	0.388 ± 0.014
308.15 K	913.5 ± 1.1	1074 ± 5	0.37 ± 0.014
313.15 K	907.3 ± 1.1	1054 ± 5	0.352 ± 0.014
